Source: patent US20110092476A1, “Bicycloheteroaryl compounds as P2X7 modulators and uses thereof” (Renovis, Inc., priority 2006, published 2011)

Target: T1, P2X7 receptor (Homo sapiens, UniProt Q99572)
T1 construct: host or cells: THP-1 cells differentiated with LPS and IFN-γ
T1 sequence (Q99572 1-595): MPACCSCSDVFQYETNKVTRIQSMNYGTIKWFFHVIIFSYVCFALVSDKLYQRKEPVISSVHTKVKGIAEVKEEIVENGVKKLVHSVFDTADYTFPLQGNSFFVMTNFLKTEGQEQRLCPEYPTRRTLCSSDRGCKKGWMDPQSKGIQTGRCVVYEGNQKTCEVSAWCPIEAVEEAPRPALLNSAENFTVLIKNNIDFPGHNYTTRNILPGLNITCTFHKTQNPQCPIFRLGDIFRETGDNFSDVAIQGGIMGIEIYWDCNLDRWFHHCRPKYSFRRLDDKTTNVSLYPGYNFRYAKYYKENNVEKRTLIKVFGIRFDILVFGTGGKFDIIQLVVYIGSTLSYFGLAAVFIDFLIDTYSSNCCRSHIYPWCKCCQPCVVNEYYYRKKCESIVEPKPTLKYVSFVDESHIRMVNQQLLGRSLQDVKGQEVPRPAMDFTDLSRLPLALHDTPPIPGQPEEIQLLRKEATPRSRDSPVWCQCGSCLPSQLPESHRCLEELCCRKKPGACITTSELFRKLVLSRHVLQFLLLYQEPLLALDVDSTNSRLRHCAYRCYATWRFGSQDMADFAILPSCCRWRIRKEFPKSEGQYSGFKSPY
Test: IL-1β release assay in differentiated THP-1 cells stimulated with BzATP (Example 9)
Format: cell-based
Conditions: 0.1 μM compound (symbols *); differentiated THP-1 cells, BzATP 250 uM; read-out: IL-1β % Inhib. @ 0.3 or 0.1 uM
In short: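 IC50 derived by four-parameter logistic fit of percent inhibition of IL-1β release (ELISA, background-adjusted). Release triggered by 45 min BzATP at 250 uM final after 30 min compound pretreatment of THP-1 cells previously differentiated 16 h (LPS, IFN-γ, 100 ng/mL each) and re-primed 2 h with LPS.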

SMILES	inhibition at 0.1 µM
COc1cc(CC(=O)Nc2cccc3c(=O)n(C(C)CO)ccc23)cc(OC)c1 (stereo not drawn) [Compound 114]	0 to 25%
COc1ccc(CC(=O)Nc2cccc3c(=O)n(CC(C)O)ccc23)c(OC)c1 (stereo not drawn) [Compound 174]	0 to 25%
COc1ccc(CCC(=O)Nc2cccc3c(=O)n(CC(C)O)ccc23)cc1 (stereo not drawn) [Compound 150]	26 to 50%
Cc1cccc(C(=O)Nc2cccc3c(=O)n(CC(C)O)ccc23)c1Cl (stereo not drawn) [Compound 182]	0 to 25%
CC(CO)n1ccc2c(NC(=O)c3cc(Cl)ccc3Cl)cccc2c1=O (stereo not drawn) [Compound 97]	0 to 25%
CC(O)Cn1ccc2c(NC(=O)c3ccc4c(c3)OCCCO4)cccc2c1=O (stereo not drawn) [Compound 171]	0 to 25%
Cc1cccc(C(=O)Nc2cccc3c(=O)n(CC4(O)CCCCC4)ccc23)c1C [Compound 85]	0 to 25%
COc1ccc(C(=O)Nc2cccc3c(=O)n(CC4(O)CCCCC4)ccc23)c(C)c1 [Compound 83]	0 to 25%
CC(C)(O)Cn1ccc2c(NC(=O)CCc3ccccc3Cl)cccc2c1=O [Compound 194]	0 to 25%
Cc1cccc(CCC(=O)Nc2cccc3c(=O)n(CC(C)O)ccc23)c1 (stereo not drawn) [Compound 180]	0 to 25%
CC(O)Cn1ccc2c(NC(=O)c3ccc(C(C)(C)C)cc3)cccc2c1=O (stereo not drawn) [Compound 147]	0 to 25%
O=C(Cc1ccccc1Cl)Nc1cccc2c(=O)n(CC3(O)CCCCC3)ccc12 [Compound 88]	0 to 25%
CC(O)Cn1ccc2c(NC(=O)c3ccccc3Cl)cccc2c1=O (stereo not drawn) [Compound 136]	0 to 25%
COc1cc(CC(=O)Nc2cccc3c(=O)n(CC(C)O)ccc23)cc(OC)c1 (stereo not drawn) [Compound 166]	0 to 25%
O=C(Nc1cccc2c(=O)n(CC3(O)CCCCC3)ccc12)c1ccc(-c2ccccc2)cc1 [Compound 22]	0 to 25%
COc1ccccc1CCC(=O)Nc1cccc2c(=O)n(C(C)CO)ccc12 (stereo not drawn) [Compound 104]	0 to 25%
CC(CO)n1ccc2c(NC(=O)Cc3ccc4c(c3)OCO4)cccc2c1=O (stereo not drawn) [Compound 113]	0 to 25%
CC(CO)n1ccc2c(NC(=O)c3ccc(-c4ccccc4)cc3)cccc2c1=O (stereo not drawn) [Compound 102]	0 to 25%
CCOc1ccc(C(=O)Nc2cccc3c(=O)n(CC(C)O)ccc23)c(O)c1 (stereo not drawn) [Compound 124]	0 to 25%
CC(CO)n1ccc2c(NC(=O)c3ccc(Cl)cc3Cl)cccc2c1=O (stereo not drawn) [Compound 96]	0 to 25%
Cc1cc(C)c(CC(=O)Nc2cccc3c(=O)n(CC(C)O)ccc23)c(C)c1 (stereo not drawn) [Compound 129]	0 to 25%
CC(O)Cn1ccc2c(NC(=O)CCc3ccccc3Cl)cccc2c1=O (stereo not drawn) [Compound 133]	26 to 50%
CC(CO)n1ccc2c(NC(=O)c3ccc4c(c3)OCCCO4)cccc2c1=O (stereo not drawn) [Compound 117]	0 to 25%
CCOc1ccc(C(=O)Nc2cccc3c(=O)n(CC(C)(C)O)ccc23)c(O)c1 [Compound 185]	0 to 25%
CC(CO)n1ccc2c(NC(=O)c3cccc4c3OCCO4)cccc2c1=O (stereo not drawn) [Compound 116]	0 to 25%

Same assay, conditions: 0.1 μM compound; differentiated THP-1 cells, BzATP 250 uM; "*" symbols; read-out: IL-1β % Inhib. @ 0.3 or 0.1 uM

SMILES	inhibition at 0.1 µM
Cc1cccc(CC(=O)Nc2cccc3c(=O)n(CC(C)(C)O)ccc23)c1 [Compound 213]	0 to 25%
Cc1c(Cl)cccc1C(=O)Nc1cccc2c(=O)n(CC(C)(C)O)ccc12 [Compound 225]	0 to 25%
CC(C)(O)Cn1ccc2c(NC(=O)c3ccc4c(c3)OCCCO4)cccc2c1=O [Compound 223]	0 to 25%
COc1cc(CC(=O)Nc2cccc3c(=O)n(CC(C)(C)O)ccc23)cc(OC)c1 [Compound 219]	0 to 25%
Cc1ccc(C(=O)Nc2cccc3c(=O)n(CC(C)(C)O)ccc23)cc1Cl [Compound 220]	26 to 50%
CC(C)(O)Cn1ccc2c(NC(=O)Cc3csc4ccccc34)cccc2c1=O [Compound 224]	26 to 50%

Same assay, conditions: 0.3 μM compound (symbols +); differentiated THP-1 cells, BzATP 250 uM; read-out: IL-1β % Inhib. @ 0.3 or 0.1 uM

SMILES	inhibition at 0.3 µM
COc1ccc(C(=O)Nc2cccc3c(=O)n(C(CO)CO)ccc23)c(OC)c1 [Compound 5]	0 to 25%
COc1ccc(CC(=O)Nc2cccc3c(=O)n(CCO)ccc23)cc1Br [Compound 66]	> 76%
O=C(Nc1cccc2c(=O)n(CCO)ccc12)c1ccc(C(F)(F)F)cc1C(F)(F)F [Compound 6]	26 to 50%
COc1ccc(OC)c(CC(=O)Nc2cccc3c(=O)n(CC4(O)CCCCC4)ccc23)c1 [Compound 30]	0 to 25%
Cc1cccc(CC(=O)Nc2cccc3c(=O)n(CC4(O)CCCCC4)ccc23)c1 [Compound 32]	0 to 25%
Cc1cccc(CCC(=O)Nc2cccc3c(=O)n(CC4(O)CCCCC4)ccc23)c1 [Compound 53]	0 to 25%
COc1ccc(CCC(=O)Nc2cccc3c(=O)n(CC4(O)CCCCC4)ccc23)cc1 [Compound 25]	0 to 25%
O=C(CCc1ccccc1)Nc1cccc2c(=O)n(CCO)ccc12 [Compound 3]	51 to 75%
O=C(Cc1cc(Cl)ccc1C(F)(F)F)Nc1cccc2c(=O)n(CCO)ccc12 [Compound 68]	26 to 50%
CCOc1ccc(CC(=O)Nc2cccc3c(=O)n(CC4(O)CCCCC4)ccc23)cc1 [Compound 34]	0 to 25%

Same assay, conditions: 0.3 μM compound; differentiated THP-1 cells, BzATP 250 uM; "+" symbols; read-out: IL-1β % Inhib. @ 0.3 or 0.1 uM

SMILES	inhibition at 0.3 µM
C[C@@H](CO)n1ccc2c(NC(=O)Cc3ccc(C(F)(F)F)cc3)cccc2c1=O [Compound 318]	51 to 75%
Cc1ccc2c(=O)n(CCO)ccc2c1NC(=O)Cc1cccc(C(F)(F)F)c1F [Compound 396]	> 76%
Cc1ccc(CC(=O)Nc2cccc3c(=O)n([C@H](C)C(N)=O)ccc23)cc1F [Compound 302]	> 76%
O=C(Cc1ccc(Cl)cc1C(F)(F)F)Nc1cccc2c(=O)n(C(CO)CO)ccc12 [Compound 228]	51 to 75%
COc1ccc2c(=O)n([C@H](C)C(N)=O)ccc2c1NC(=O)Cc1ccc(C(F)(F)F)cc1 [Compound 344, (R)-2-{6-Methoxy-1-oxo-5-[2-(4-trifluoromethyl-phenyl)-acetylamino]-1H-isoquinolin-2-yl}-propionamide]	> 76%
C[C@@H](C(N)=O)n1ccc2c(NC(=O)Cc3ccc(Cl)c(F)c3)cccc2c1=O [Compound 352]	> 76%
C[C@@H](CO)n1ccc2c(NC(=O)Cc3ccc(Cl)cc3F)cccc2c1=O [Compound 328]	51 to 75%
C[C@H](C(N)=O)n1ccc2c(NC(=O)Cc3ccc(Cl)cc3Cl)cccc2c1=O [Compound 314]	> 76%
C[C@H](C(N)=O)n1ccc2c(NC(=O)Cc3ccc(C(F)(F)F)cc3C(F)(F)F)cccc2c1=O [Compound 380]	> 76%
C[C@H](CO)n1ccc2c(NC(=O)Cc3ccc(F)c(Cl)c3)cccc2c1=O [Compound 329]	51 to 75%
C[C@H](C(N)=O)n1ccc2c(NC(=O)Cc3ccc(Cl)c(Cl)c3)cccc2c1=O [Compound 239]	> 76%
O=C(Cc1ccc(C(F)(F)F)cc1C(F)(F)F)Nc1cccc2c(=O)n(C(CO)CO)ccc12 [Compound 233]	26 to 50%
C[C@H](CO)n1ccc2c(NC(=O)Cc3ccc(C(F)(F)F)c(F)c3)c(C3CC3)ccc2c1=O [Compound 384, N-[6-Cyclopropyl-2-((R)-2-hydroxy-1-methyl-ethyl)-1-oxo-1,2-dihydro-isoquinolin-5-yl]-2-(3-fluoro-4-trifluoromethyl-phenyl)-acetamide]	> 76%
C[C@@H](C(N)=O)n1ccc2c(NC(=O)Cc3cccc(C(F)(F)F)c3F)cccc2c1=O [Compound 349]	> 76%
C[C@H](C(=O)Nc1cccc2c(=O)n([C@H](C)CO)ccc12)c1ccc(Cl)c(Cl)c1 [Compound 321]	> 76%
CC(C)(CO)n1ccc2c(NC(=O)Cc3ccc(Cl)c(F)c3)cccc2c1=O [Compound 373]	51 to 75%
C[C@@H](CO)n1ccc2c(NC(=O)Cc3ccc(C(F)(F)F)c(F)c3)cccc2c1=O [Compound 336]	> 76%
C[C@@H](C(=O)Nc1cccc2c(=O)n([C@@H](C)CO)ccc12)c1ccc(Cl)c(Cl)c1 [Compound 317]	> 76%
CC(C)[C@H](C(=O)O)n1ccc2c(NC(=O)[C@@H](C)c3ccc(Cl)cc3)cccc2c1=O [Compound 323, (R)-2-{5-[(S)-2-(4-Chloro-phenyl)-propionylamino]-1-oxo-1H-isoquinolin-2-yl}-3-methyl-butyric acid]	51 to 75%
CC(C)(CO)n1ccc2c(NC(=O)Cc3ccc(C(F)(F)F)c(F)c3)cccc2c1=O [Compound 365]	> 76%
CC(C)(CO)n1ccc2c(NC(=O)Cc3ccc(C(F)(F)F)cc3)cccc2c1=O [Compound 363]	51 to 75%

Same assay, conditions: THP-1 cells, BzATP 250 uM, IL-1β by ELISA

SMILES	IC50
Cc1ccc2c(=O)n(CCO)ccc2c1NC(=O)Cc1cccc(C(F)(F)F)c1F [Compound 396]	10.7 nM
